Results on 20 molecules are retold here after ChEMBL document CHEMBL1155790 (Bioorg Med Chem, 2008).

For one experiment, the target named is T1, Acetylcholinesterase (Bos taurus, UniProt P23795).
T1 sequence (P23795 whole entry): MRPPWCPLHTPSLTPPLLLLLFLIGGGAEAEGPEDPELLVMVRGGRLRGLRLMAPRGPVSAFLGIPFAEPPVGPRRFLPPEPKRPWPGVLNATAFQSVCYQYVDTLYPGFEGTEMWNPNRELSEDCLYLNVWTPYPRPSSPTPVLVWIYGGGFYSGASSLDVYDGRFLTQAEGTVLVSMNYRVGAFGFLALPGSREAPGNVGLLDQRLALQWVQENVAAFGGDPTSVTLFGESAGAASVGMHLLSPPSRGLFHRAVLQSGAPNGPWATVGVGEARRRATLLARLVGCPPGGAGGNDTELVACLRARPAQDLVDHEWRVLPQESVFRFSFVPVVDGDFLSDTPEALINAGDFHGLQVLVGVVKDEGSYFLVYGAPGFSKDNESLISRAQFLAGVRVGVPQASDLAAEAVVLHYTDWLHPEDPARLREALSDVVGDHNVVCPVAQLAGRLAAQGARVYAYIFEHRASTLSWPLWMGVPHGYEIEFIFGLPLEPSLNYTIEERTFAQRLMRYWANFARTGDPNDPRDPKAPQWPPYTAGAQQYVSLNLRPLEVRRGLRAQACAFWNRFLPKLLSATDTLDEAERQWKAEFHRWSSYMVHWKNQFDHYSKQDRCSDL

Experiment [1] deals with T2, Acetylcholinesterase (Bos taurus) (UniProt P23795).
T2 sequence (whole entry): T1 sequence (P23795 whole entry)
As to the kind of experiment: Inhibition of bovine AChE at 50 uM by Ellman's method. In general terms: In Ellman's method for cholinesterases, released thiocholine reacts with DTNB.

For experiment [2], the target named is T2, Acetylcholinesterase (Bos taurus). In words: Inhibition of bovine AChE at 10 uM by Ellman's method.
Experiment [3] in a line: Selectivity index, IC50 for equine BChE to IC50 for bovine AChE by Ellman's method.
The target in another experiment is Cholinesterase (Equus caballus, UniProt P81908).
Experiment [4] concerns the target Cholinesterase (Equus caballus) (UniProt P81908). As to the kind of experiment: Inhibition of equine BChE at 10 uM by Ellman's method.
For experiment [5] the target is unchanged. As to the kind of experiment: Inhibition of equine BChE at 50 uM by Ellman's method.

Cholinesterase, sequence (P81908 whole entry): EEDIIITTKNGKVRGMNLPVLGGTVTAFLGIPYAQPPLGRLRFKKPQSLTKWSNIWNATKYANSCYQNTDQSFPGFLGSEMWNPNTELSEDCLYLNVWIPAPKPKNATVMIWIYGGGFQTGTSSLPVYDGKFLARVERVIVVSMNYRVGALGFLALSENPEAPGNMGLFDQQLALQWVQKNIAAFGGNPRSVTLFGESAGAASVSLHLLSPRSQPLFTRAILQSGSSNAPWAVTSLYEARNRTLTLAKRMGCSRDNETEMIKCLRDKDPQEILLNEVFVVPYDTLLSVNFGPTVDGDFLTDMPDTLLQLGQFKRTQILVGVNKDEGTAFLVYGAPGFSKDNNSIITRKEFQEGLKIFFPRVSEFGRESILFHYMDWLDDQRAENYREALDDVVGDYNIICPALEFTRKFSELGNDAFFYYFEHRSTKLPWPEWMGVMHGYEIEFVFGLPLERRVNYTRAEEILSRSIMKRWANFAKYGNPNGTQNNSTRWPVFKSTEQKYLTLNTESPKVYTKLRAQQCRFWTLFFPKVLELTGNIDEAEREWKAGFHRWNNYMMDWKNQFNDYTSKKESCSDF
Cholinesterase (Equus caballus), sequence (P81908 whole entry): as above

For the molecule `Cc1c(C)c2ccc(OCCCOc3cc(O)cc(N(C)C)c3)cc2oc1=O`, the IC50 – broadly, the concentration at which inhibition is half-maximal – against Acetylcholinesterase stood at 871 nM. On to `CN(Cc1ccccc1)c1cc(O)cc(OCCCOc2cc(O)cc(N(C)Cc3ccccc3)c2)c1`, for which the inhibition – broadly, the relative decrease from the control value, in per cent – in experiment [1] came out at 3%. Turning to `Cc1c(C)c2ccc(OCCCCOc3cc(O)cc(N(C)Cc4ccccc4)c3)cc2oc1=O`, the inhibition in experiment [2] amounted to 15%. For the molecule `C[N+](C)(C)c1cccc(OCCCCOc2cccc([N+](C)(C)C)c2)c1`, the Selectivity Index in experiment [3] was 15. Moreover, the IC50 against Acetylcholinesterase stood at 158 nM; on Cholinesterase, 2340 nM. With `C[N+](C)(C)c1cc(O)cc(OCCCCOc2cc(O)cc([N+](C)(C)C)c2)c1`, the IC50 at Cholinesterase is 715 nM. As for `C[N+](C)(C)c1cc(O)cc(OCCCOc2cc(O)cc([N+](C)(C)C)c2)c1`, the Selectivity Index in experiment [3] was determined as 1460. Besides, the values for the IC50 at Acetylcholinesterase and against Cholinesterase were 0.49 nM and 718 nM, respectively. `Cc1c(C)c2ccc(OCCCCOc3cc(O)cc([N+](C)(C)C)c3)cc2oc1=O` registered a Selectivity Index in experiment [3] of 708. In addition, the IC50 against Acetylcholinesterase amounted to 1 nM; against Cholinesterase, 708 nM. `COc1ccc2c(C)c(C)c(=O)oc2c1` displayed an inhibition in experiment [4] of 25%. Also, at Acetylcholinesterase, 42000 nM corresponded to half-maximal inhibition (IC50). Turning to `CN(Cc1ccccc1)c1cc(O)cc(OCCCCOc2cc(O)cc(N(C)Cc3ccccc3)c2)c1`, the results for the inhibition in experiment [1] and in experiment [2] were 3% and 14%, respectively.

Take `Cc1c(C)c2ccc(OCCCOc3cc(O)cc(N(C)Cc4ccccc4)c3)cc2oc1=O`: the inhibition in experiment [2] is 8%. Turning to `CN(C)c1cc(O)cc(OCCCCOc2cc(O)cc(N(C)Cc3ccccc3)c2)c1`, the inhibition in experiment [2] was determined as 40%. For the molecule `CN(C)c1cc(O)cc(OCCCOc2cc(O)cc(N(C)Cc3ccccc3)c2)c1`, half-maximal inhibition against Acetylcholinesterase (IC50) required 6170 nM.

The molecule `Cc1c(C)c2ccc(OCCCOc3cc(O)cc([N+](C)(C)C)c3)cc2oc1=O` registered a Selectivity Index in experiment [3] of 505. Also, the IC50 against Acetylcholinesterase amounted to 2.1 nM; at Cholinesterase it was 1060 nM.

The molecule `C[N+](C)(C)c1cc(O)cc(OCCCCOc2cc(O)cc([N+](C)(C)Cc3ccccc3)c2)c1` showed an inhibition in experiment [4] of 42%. The molecule further returned an IC50 on Acetylcholinesterase of 6560 nM. Take `Cc1c(C)c2ccc(OCCCCOc3cc(O)cc(N(C)C)c3)cc2oc1=O`: in experiment [5], the inhibition worked out at 25%. The same molecule returned an IC50 on Acetylcholinesterase of 275 nM. `C[N+](C)(C)c1cccc(O)c1` came in with an inhibition in experiment [4] of 13%. For the same molecule, the IC50 against Acetylcholinesterase worked out at 12000 nM. In experiment [5], `CN(C)c1cc(O)cc(OCCCCOc2cc(O)cc(N(C)C)c2)c1` gave an inhibition of 25%. The same molecule yielded an IC50 on Acetylcholinesterase of 6460 nM. `CN(C)c1cc(O)cc(OCCCOc2cc(O)cc(N(C)C)c2)c1`: the IC50 against Acetylcholinesterase is 1910 nM. Consider `C=CC[N+](C)(C)c1ccc(CCC(=O)CCc2ccc([N+](C)(C)CC=C)cc2)cc1`, for which the IC50 against Acetylcholinesterase turned out to be 8 nM. For the molecule `CC[N+](CC)(CCNC(=O)C(=O)NCC[N+](CC)(CC)Cc1ccccc1Cl)Cc1ccccc1Cl` [AMBENONIUM], the IC50 against Acetylcholinesterase came out at 0.12 nM.
